We go through 14 compounds from patent publication US10123537B2, “Amide compound or salt thereof, agricultural and horticultural insecticide and microbicide comprising the compound, and method for using the insecticide and microbicide” (NIHON NOHYAKU CO., LTD., priority 2013, dated 2018).

For one series, the system named is Laodelphax striatella. Description: Insecticidal test on Laodelphax striatella. The class given is in vivo. To be noted: Laodelphax striatellus, 192 h, rice seedlings dipped 30 seconds, 3rd-instar larvae, 8 days after inoculation, read-out: insecticidal effect (corrected mortality rate) activity level. An excerpt: Insecticidal Test on Laodelphax striatella
The amide compounds represented by the general formula (I) of the present invention or salts thereof were separately dispersed in water and diluted to 500 ppm, and rice plant seedlings (variety: Nihonbare) were dipped in the agrochemical dispersions for 30 seconds. After air-dried, each seedling was put into a separate glass test tube and inoculated with ten 3rd-instar larvae of Laodelphax striatella, and then the glass test tubes were capped with cotton plugs. At 8 days after the inoculation, the numbers of surviving larvae and dead larvae were counted, the corrected mortality rate was calculated according to the formula shown below, and the insecticidal effect was evaluated according to the criteria of Test Example 1. Corrected mortality rate (%)=100×(Survival rate in a non-treatment plot−Survival rate in a treatment plot)/Survival rate in a non-treatment plot

In the next series the test system is Plutella xylostella. Description: Insecticidal test on Plutella xylostella. The class given is in vivo. To be noted: 144 h, Chinese cabbage seedlings with laid eggs dipped about 30 seconds, 25° C., 6 days after dip treatment, read-out: insecticidal effect (corrected mortality rate, hatched larvae) activity level. An excerpt:
Insecticidal Test on Plutella xylostella
Adults of Plutella xylostella were released onto Chinese cabbage seedlings and allowed to lay eggs thereon. At 2 days after the release of the adults, the Chinese cabbage seedlings with laid eggs were dipped for about 30 seconds in agrochemical formulations diluted to 500 ppm, each of which contained a different amide compound represented by the general formula (I) of the present invention as an active ingredient. After air-dried, the seedlings were kept in a thermostatic chamber at 25° C. At 6 days after the dip treatment, the number of hatched larvae per plot was counted, the mortality rate was calculated according to the formula shown below, and the insecticidal effect was evaluated according to the criteria of Test Example 1. This test was conducted in triplicate using 10 adults of Plutella xylostella per plot. Corrected mortality rate (%)=100×(Number of hatched larvae in a non-treatment plot−Number of hatched larvae in a treatment plot)/Number of hatched larvae in a non-treatment plot

A further series concerns Tetranychus urticae. Nature of the series: Acaricidal test on Tetranychus urticae. The class given is in vivo. The note with it: 500 ppm, kidney bean leaf disks dipped about 30 seconds, female adults, two days later, 25° C. The text has this: Acaricidal Test on Tetranychus urticae
Another series relates to Meloidogyne incognita. Description: Nematicidal test on Meloidogyne incognita. The class given is in vivo. To be noted: 500 ppm, 1 mL soil drench, potted melon seedlings, 8 days after inoculation. How it is done: Nematicidal Test on Meloidogyne incognita
Agrochemical formulations containing different amide compounds represented by the general formula (I) of the present invention or salts thereof as an active ingredient were separately diluted to a concentration of 500 ppm. The diluted agrochemical formulations (1 mL) were drenched into the soil around the foot of potted melon seedlings. At one day after the agrochemical treatment, an aqueous suspension of Meloidogyne incognita (about 500 worms/mL) was drenched into the soil for inoculation both in a treatment plot and in a non-treatment plot. The inoculated pots were kept in a greenhouse at 25° C. At 8 days after the inoculation, the root of each seedling was washed with water, the number of root nodules was counted, and the nematicidal effect was evaluated according to the following criteria.
A: the percentage of the number of root nodules relative to the non-treatment plot is 0%.
B: the percentage of the number of root nodules relative to the non-treatment plot is 1 to 10%.
C: the percentage of the number of root nodules relative to the non-treatment plot is 11 to 20%.
D: the percentage of the number of root nodules relative to the non-treatment plot is 21 to 50%.

Series [1] relates to wheat powdery mildew fungus Erysiphe graminis. The note with it: 200 ppm, foliar application to wheat plants, 10 mL per pot, 7 days after inoculation.

Usually mortality stands for the percentage killed.

For `CCSc1cc(C(F)(F)F)ccc1C(=O)N(C)c1ccc(C(F)(F)F)cn1` [Compound 1-1, 2-(ethylthio)-N-methyl-4-(trifluoromethyl)-N-(5-(trifluoromethyl)pyridin-2-yl)benzamide], the mortality at 500 ppm with Laodelphax striatella and with Plutella xylostella was 100% in each case. Besides, the “acaricidal effect (corrected mortality rate) activity level” value (“acaricidal effect” for short) in the series on Tetranychus urticae was “D or higher”. Also, the “nematicidal effect (number of root nodules relative to non-treatment plot) activity level” value with Meloidogyne incognita was “D or higher”.

Consider `CC[S+]([O-])c1cc(C(F)(F)F)ccc1C(=O)N(C)c1ccc(C(F)(F)F)cn1` (stereo not drawn) [Compound 1-2, 2-(ethylsulfinyl)-N-methyl-4-(trifluoromethyl)-N-(5-(trifluoromethyl)pyridin-2-yl)benzamide], for which the mortality at 500 ppm in the series on Laodelphax striatella and in the series on Plutella xylostella was 100% in each case. For the same compound, the “nematicidal effect (number of root nodules relative to non-treatment plot) activity level” value in the series on Meloidogyne incognita is on record as “D or higher”.

With `CCS(=O)(=O)c1cc(C(F)(F)F)ccc1C(=O)N(C)c1ccc(C(F)(F)F)cn1` [Compound 1-3, 2-(ethylsulfonyl)-N-methyl-4-(trifluoromethyl)-N-(5-(trifluoromethyl)pyridin-2-yl)benzamide], the mortality at 500 ppm in the series on Laodelphax striatella and in the series on Plutella xylostella was 100% in each case. For the same compound, the “nematicidal effect (number of root nodules relative to non-treatment plot) activity level” value with Meloidogyne incognita is listed as “D or higher”.

As to `CCN(C(=O)c1ccc(C(F)(F)F)cc1[S+]([O-])CC)c1ccc(C(F)(F)F)cn1` (stereo not drawn) [Compound 1-5], the “acaricidal effect” value with Tetranychus urticae is recorded as “D or higher”. The “nematicidal effect (number of root nodules relative to non-treatment plot) activity level” value in the series with Meloidogyne incognita is reported as “D or higher”. Further, the “control effect (control rate, lesion area) activity level” value (shortened to “control effect”) in series [1] is reported as “D or higher”.

For the compound `CCN(C(=O)c1ccc(C(F)(F)F)cc1S(=O)(=O)CC)c1ccc(C(F)(F)F)cn1` [Compound 1-6], the “acaricidal effect” value in the series with Tetranychus urticae is listed as “D or higher”. The “nematicidal effect (number of root nodules relative to non-treatment plot) activity level” value in the series with Meloidogyne incognita was “D or higher”. The “control effect” value in series [1] is “D or higher”.

Take `CCS(=O)(=O)c1cc(C(F)(F)F)ccc1C(=O)N(c1ccc(C(F)(F)F)cn1)C1CC1` [Compound 1-9]: in the series on Tetranychus urticae, the “acaricidal effect” value was “D or higher”. For the same compound, the “nematicidal effect (number of root nodules relative to non-treatment plot) activity level” value in the series on Meloidogyne incognita is recorded as “D or higher”.

With `CCSc1cc(C(F)(F)F)ccc1C(=O)N(C)c1ccc(C(F)(F)C(F)(F)F)cn1` [Compound 1-25], the “acaricidal effect” value with Tetranychus urticae is listed as “D or higher”. In addition, in the series on Meloidogyne incognita, the “nematicidal effect (number of root nodules relative to non-treatment plot) activity level” value is on record as “D or higher”.

With `CCS(=O)(=O)c1cc(C(F)(F)F)ccc1C(=O)N(C)c1ccc(C(F)(F)C(F)(F)F)cn1` [Compound 1-26], the “acaricidal effect” value in the series with Tetranychus urticae is “D or higher”. The “nematicidal effect (number of root nodules relative to non-treatment plot) activity level” value in the series on Meloidogyne incognita is on record as “D or higher”.

As to `CC[S+]([O-])c1cc(C(F)(F)F)ccc1C(=O)N(C)c1ccc(C(F)(F)F)cc1` (stereo not drawn) [Compound 3-2], the “acaricidal effect” value in the series with Tetranychus urticae is reported as “D or higher”. For the same compound, the “nematicidal effect (number of root nodules relative to non-treatment plot) activity level” value in the series on Meloidogyne incognita is given as “D or higher”.

Regarding `CCS(=O)(=O)c1cc(C(F)(F)F)ccc1C(=O)N(C)c1ccc(C(F)(F)F)cc1` [Compound 3-3], in the series on Tetranychus urticae, the “acaricidal effect” value is listed as “D or higher”. The “nematicidal effect (number of root nodules relative to non-treatment plot) activity level” value with Meloidogyne incognita was “D or higher”. Further, in series [1], the “control effect” value is given as “D or higher”.

`CCS(=O)(=O)c1cc(C(F)(F)F)ccc1C(=O)N(C)c1ccc(C(OC)(C(F)(F)F)C(F)(F)F)cc1` [Compound 3-6]: in the series on Tetranychus urticae, the “acaricidal effect” value is “D or higher”. The “nematicidal effect (number of root nodules relative to non-treatment plot) activity level” value in the series on Meloidogyne incognita is recorded as “D or higher”. For the same compound, the “control effect” value in series [1] is “D or higher”.

With `CCSc1cc(C(F)(F)F)ccc1C(=O)N(C)c1ccc(C(C(F)(F)F)C(F)(F)F)cc1` [Compound 3-10], the “acaricidal effect” value in the series on Tetranychus urticae is “D or higher”. The “nematicidal effect (number of root nodules relative to non-treatment plot) activity level” value in the series with Meloidogyne incognita is “D or higher”.

Regarding `CCS(=O)(=O)c1cc(C(F)(F)F)ccc1C(=O)N(C)c1ccc(C(C(F)(F)F)C(F)(F)F)cc1` [Compound 3-11], in the series on Tetranychus urticae, the “acaricidal effect” value was “D or higher”. Further, in the series with Meloidogyne incognita, the “nematicidal effect (number of root nodules relative to non-treatment plot) activity level” value is listed as “D or higher”.

In the case of `CCSc1cc(C(F)(F)F)ccc1C(=O)N(C)c1ccc(Cl)cc1` [Compound 3-21], the “acaricidal effect” value with Tetranychus urticae is reported as “D or higher”. In addition, the “nematicidal effect (number of root nodules relative to non-treatment plot) activity level” value in the series on Meloidogyne incognita is listed as “D or higher”.
